These are literature values, as cited in patent US8829054B1, “Ready-to-use co-solvents pharmaceutical composition in modified flexible plastic container” (Welgrace Research Group, priority 2013, dated 2014).

The conditions of this series: published literature, Rosenberg et al. 1988.

Regarding `COC(=O)CCc1ccc(OCC(O)CNC(C)C)cc1.Cl` (stereo not shown) [Esmolol, methyl3-[4-[2-hydroxy-3-(isopropylamino)propoxy]phenyl]propionate hydrochloride], the “activation energies for Esmolol decompositions” value is 19 to 21.5 kcal/mol.
